Assay: CD69 Whole Blood Assay (CD69 Hu Blood FACS)
Assay type: cell-based, human
Settings: Lymphocyte; human whole blood, anti-IgM activated B lymphocytes, FACS; IC70; Table 2 (unit inferred); read-out: CD69 Hu Blood FACS (IC70)
Method in brief: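 Compounds tested for blocking B-cell CD69 induction by flow cytometry in human whole blood, with activation via anti-human IgM goat F(ab′)2 crosslinking of surface IgM.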
In the case of COCCN1CCn2nc(Nc3cc(-c4ccnc(-n5ncc6c7c(sc6c5=O)CC(C)(C)C7)c4CO)cn(C)c3=O)cc2C1 [Example 304, 3-[3-(hydroxymethyl)-4-[5-[[5-(2-methoxyethyl)-6,7-dihydro-4H-pyrazolo[1,5-a]pyrazin-2-yl]amino]-1-methyl-6-oxo-3-pyridyl]-2-pyridyl]-7,7-dimethyl-6,8-dihydrocyclopenta[3,4]thieno[1,3-d]pyridazin-4-one], the IC70 is reported as 40 nM.
With Cn1cc(-c2ccnc(-n3ncc4c5c(sc4c3=O)CCCC5)c2CO)cc(Nc2cnccn2)c1=O [Example 194, 3-[3-(hydroxymethyl)-4-[1-methyl-6-oxo-5-(pyrazin-2-ylamino)-3-pyridyl]-2-pyridyl]-6,7,8,9-tetrahydrobenzothiopheno[2,3-d]pyridazin-4-one] the IC70 was 1200 nM.
With Cn1cc(-c2ccnc(N3CCn4c(cc5c4CC(C)(C)C5)C3=O)c2CO)cc(Nc2ccc(C3CC3)cn2)c1=O [Example 278, 3-[4-[5-[(5-cyclopropyl-2-pyridyl)amino]-1-methyl-6-oxo-3-pyridyl]-3-(hydroxymethyl)-2-pyridyl]-7,7-dimethyl-1,2,6,8-tetrahydrocyclopenta[3,4]pyrrolo[3,5-b]pyrazin-4-one] the IC70 was 3200 nM.

Reference: patent US10045983B2, “Heteroaryl pyridone and aza-pyrodine compounds” (Genentech, Inc., priority 2011, dated 2018)
